Test results: paper PMC8766184, “Molecular Docking, Synthesis, and Tyrosinase Inhibition Activity of Acetophenone Amide: Potential Inhibitor of Melanogenesis” (BioMed Research International, 2022)
Read-outs that look alike come from different tables or passages of the source.

Assays:
mushroom tyrosinase [1] = target: T1, mushroom tyrosinase (Agaricus bisporus, UniProt C7FF04); experiment: In vitro mushroom tyrosinase inhibition assay (L-DOPA substrate, dopachrome absorbance); type: biochemical
T1 construct: purchased Sigma Aldrich
T1 sequence (C7FF04 1-392): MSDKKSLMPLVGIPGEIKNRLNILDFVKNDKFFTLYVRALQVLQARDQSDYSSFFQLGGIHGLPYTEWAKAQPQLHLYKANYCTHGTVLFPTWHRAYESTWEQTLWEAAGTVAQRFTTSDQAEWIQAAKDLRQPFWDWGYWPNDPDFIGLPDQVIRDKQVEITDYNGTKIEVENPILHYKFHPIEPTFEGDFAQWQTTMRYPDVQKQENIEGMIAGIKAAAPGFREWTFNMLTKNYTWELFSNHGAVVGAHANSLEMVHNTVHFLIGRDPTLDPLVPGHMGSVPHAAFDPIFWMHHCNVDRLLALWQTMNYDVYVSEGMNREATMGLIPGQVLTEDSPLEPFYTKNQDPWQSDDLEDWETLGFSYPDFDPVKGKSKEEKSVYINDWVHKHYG
Procedure: In vitro antityrosinase potential was determined following the method previously described with little modifications [33, 34]. Briefly, 140 μL of sodium phosphate buffer, 20 μL (30 U/mL) of the enzyme mushroom tyrosinase, and 20 μL of the tested compound were added in a well of a 96-well microplate. After a preincubation of 10 minutes at room temperature of 20 μL (0.85 mM), the substrate L-DOPA was added followed by an incubation of 20 minutes at the same temperature. Subsequently, the absorbance of the intermediate dopachrome was recorded by using an Opti Max tunable microplate reader (Sunnyvale, USA) at 472 nm. […] The negative inhibitor was a phosphate buffer without an inhibitor.

mushroom tyrosinase [2] = target: T1, mushroom tyrosinase; experiment: Mushroom tyrosinase inhibitory kinetics (Lineweaver-Burk and Dixon plots); type: biochemical
Procedure: Various concentrations of the inhibitor 5c were among 0.00 to 0.013 μM and that of L-DOPA was 0.00 to 0.0064 μM during all kinetic assays. For preincubation and calculations, the same protocol was followed as described in in vitro tyrosinase inhibition assay and continuous monitoring at 30 s interval for 5 minutes after adding the enzyme tyrosinase, and the formation of dopachrome was measured at 475 nm. The enzyme inhibitory action and the kind of inhibition were determined by the Lineweaver-Burk and Dixon plots. 1/V (inverse of velocities) versus 1/[S] (inverse of substrate concentration) mM^−1 were plotted to determine inhibition constant Ki.
The enzyme inhibitory interaction mechanism of 3(a–e) and 5(a–e) with the binding site of mushroom tyrosinase was determined using Michaelis-Menten kinetic studies. […] A striking reduction in the reaction rate in the presence of inhibitors refers to a decrease in the final absorbance in comparison to control without inhibitors. The inhibitory index of all these tested compounds varied depending upon the position of various substituents and classes of compounds [27]. Inhibition kinetics was analyzed by the Lineweaver-Burk and Dixon plots.

| SMILES | IC50 (mushroom tyrosinase [1]) | also measured |
| --- | --- | --- |
| CC(=O)c1cccc(NC(=O)COC(=O)c2cccc(O)c2)c1 [Compound 3a, 2-(3-acetylphenylamino)-2-oxoethyl-3-hydroxybenzoate] | 323 ± 16.9 µM | – |
| CC(=O)c1cccc(NC(=O)COC(=O)c2ccc(O)cc2)c1 [Compound 3b, 2-(3-acetylphenylamino)-2-oxoethyl-4-hydroxybenzoate] | 288 ± 32.2 µM | – |
| CC(=O)c1cccc(NC(=O)COC(=O)c2ccc(O)cc2O)c1 [Compound 3c, 2-(3-acetylphenylamino)-2-oxoethyl 2,4-dihydroxybenzoate] | 27.4 ± 3.6 µM | – |
| CC(=O)c1cccc(NC(=O)COC(=O)c2ccc(O)c(O)c2)c1 [Compound 3d, 2-(3-acetylphenylamino)-2-oxoethyl 3,4-dihydroxybenzoate] | 128 ± 8.5 µM | – |
| CC(=O)c1cccc(NC(=O)COC(=O)c2cc(O)cc(O)c2)c1 [Compound 3e, 2-(3-acetylphenylamino)-2-oxoethyl 3,5-dihydroxybenzoate] | 255 ± 14.2 µM | – |
| CC(=O)c1cccc(NC(=O)COC(=O)C=Cc2ccccc2)c1 [Compound 5a, 2-(3-acetylphenylamino)-2-oxoethylcinnamate] | 46.4 ± 5.8 µM | melting point: 159 to 161 °C |
| CC(=O)c1cccc(NC(=O)COC(=O)/C=C/c2ccc(O)cc2)c1 [Compound 5b, 2-(3-acetylphenylamino)-2-oxoethyl(E)-3-(4-hydroxyphenyl) acrylate] | 309 ± 36.8 µM | – |
| CC(=O)c1cccc(NC(=O)COC(=O)/C=C/c2ccc(O)cc2O)c1 [Compound 5c, 2-(3-acetylphenylamino)-2-oxoethyl(E)-3-(2,4-dihydroxyphenyl)acrylate] | – | IC50 (mushroom tyrosinase [1]; L-DOPA 0.85 mM substrate, enzyme 30 U/mL, absorbance at 472 nm, read-out: Mushroom tyrosinase inhibition IC50 ± SEM): 0.002 ± 0.0002 µM; Ki (mushroom tyrosinase [2]; Dixon plot, L-DOPA substrate, read-out: dissociation constant (Ki)): 0.0072 µM; type of inhibition (mushroom tyrosinase [2]; Lineweaver-Burk plot, L-DOPA substrate): competitive; reversibility of inhibition (mushroom tyrosinase [2]; remaining enzyme activity vs enzyme concentration at various inhibitor doses, L-DOPA): reversible |
| CC(=O)c1cccc(NC(=O)COC(=O)/C=C/c2ccc(Cl)cc2)c1 [Compound 5d, 2-(3-acetylphenylamino)-2-oxoethyl(E)-3-(4-chlorophenyl)acrylate] | 61.6 ± 11.4 µM | – |
